# Measured values as given in ChEMBL document CHEMBL4602676, “Discovery and Development of 3-(6-Chloropyridine-3-yloxymethyl)-2-azabicyclo[3.1.0]hexane Hydrochloride (SUVN-911): A Novel, Potent, Selective, and Orally Active Neuronal Nicotinic Acetylcholine α4β2 Receptor Antagonist for the Treatment of Depression” (J Med Chem, 2020).
# pIC50, pKi: −log10 of the molar value.
# How the values were obtained:
# [1] = target: Neuronal acetylcholine receptor; alpha4/beta2 (Homo sapiens, UniProt P17787+P43681); assay: Displacement of [3H]cytisine from human alpha4beta2 nAChR expressed in CHOK1 cell membrane by microbeta scintillation counting method; format: cell membranes, CHO-K1
# Chain of Neuronal acetylcholine receptor; alpha4/beta2 (P17787 whole entry): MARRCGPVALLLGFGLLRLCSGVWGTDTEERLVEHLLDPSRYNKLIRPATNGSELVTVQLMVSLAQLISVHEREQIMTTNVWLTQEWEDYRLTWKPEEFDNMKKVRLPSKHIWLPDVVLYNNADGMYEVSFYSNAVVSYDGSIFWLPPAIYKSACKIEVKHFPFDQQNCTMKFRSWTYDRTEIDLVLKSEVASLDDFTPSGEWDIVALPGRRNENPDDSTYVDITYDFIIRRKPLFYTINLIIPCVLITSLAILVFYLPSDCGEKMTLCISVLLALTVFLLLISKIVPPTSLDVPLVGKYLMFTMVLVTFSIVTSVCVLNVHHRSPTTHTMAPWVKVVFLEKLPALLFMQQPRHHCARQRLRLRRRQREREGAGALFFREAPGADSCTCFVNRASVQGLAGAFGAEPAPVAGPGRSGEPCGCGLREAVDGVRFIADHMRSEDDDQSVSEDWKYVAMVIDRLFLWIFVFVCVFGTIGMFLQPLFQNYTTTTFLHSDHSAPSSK
# Chain of Neuronal acetylcholine receptor; alpha4/beta2 (P43681 whole entry): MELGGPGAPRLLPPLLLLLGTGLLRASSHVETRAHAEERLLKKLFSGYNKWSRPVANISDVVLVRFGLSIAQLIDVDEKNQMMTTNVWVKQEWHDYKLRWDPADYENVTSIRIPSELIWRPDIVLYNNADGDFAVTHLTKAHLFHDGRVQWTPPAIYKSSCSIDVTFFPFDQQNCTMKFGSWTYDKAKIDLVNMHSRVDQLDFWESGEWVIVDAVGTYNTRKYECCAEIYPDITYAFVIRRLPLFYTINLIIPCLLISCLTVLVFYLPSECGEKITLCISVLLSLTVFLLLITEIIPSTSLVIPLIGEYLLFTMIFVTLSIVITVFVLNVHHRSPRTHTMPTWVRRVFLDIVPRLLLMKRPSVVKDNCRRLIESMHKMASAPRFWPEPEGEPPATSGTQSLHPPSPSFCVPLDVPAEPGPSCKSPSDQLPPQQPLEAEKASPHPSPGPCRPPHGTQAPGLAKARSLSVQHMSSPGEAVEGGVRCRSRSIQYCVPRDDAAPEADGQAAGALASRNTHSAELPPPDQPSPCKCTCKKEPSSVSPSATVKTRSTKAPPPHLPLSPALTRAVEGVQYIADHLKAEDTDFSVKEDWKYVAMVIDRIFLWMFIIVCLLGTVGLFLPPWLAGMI
# Rattus norvegicus [2] = assay: Antidepressant activity in Wistar rat assessed as immobility time at 3.0 mg/kg, po measured for 5 mins by forced swim test (reference value: 241.9 to 281.6 sec); format: functional
# Rattus norvegicus [3] = assay: Antidepressant activity in Wistar rat assessed as immobility time at 10.0 mg/kg, po measured for 5 mins by forced swim test (reference value: 241.9 to 281.6 sec); format: functional
# [4] = target: Neuronal acetylcholine receptor; alpha3/beta4 (Homo sapiens, UniProt P30926+P32297); assay: Displacement of [3H]epibatidine from human alpha3beta4 nAChR expressed in IMR32 cell membrane by microbeta scintillation counting method; format: cell membranes, IMR-32
# Chain of Neuronal acetylcholine receptor; alpha3/beta4 (P30926 whole entry): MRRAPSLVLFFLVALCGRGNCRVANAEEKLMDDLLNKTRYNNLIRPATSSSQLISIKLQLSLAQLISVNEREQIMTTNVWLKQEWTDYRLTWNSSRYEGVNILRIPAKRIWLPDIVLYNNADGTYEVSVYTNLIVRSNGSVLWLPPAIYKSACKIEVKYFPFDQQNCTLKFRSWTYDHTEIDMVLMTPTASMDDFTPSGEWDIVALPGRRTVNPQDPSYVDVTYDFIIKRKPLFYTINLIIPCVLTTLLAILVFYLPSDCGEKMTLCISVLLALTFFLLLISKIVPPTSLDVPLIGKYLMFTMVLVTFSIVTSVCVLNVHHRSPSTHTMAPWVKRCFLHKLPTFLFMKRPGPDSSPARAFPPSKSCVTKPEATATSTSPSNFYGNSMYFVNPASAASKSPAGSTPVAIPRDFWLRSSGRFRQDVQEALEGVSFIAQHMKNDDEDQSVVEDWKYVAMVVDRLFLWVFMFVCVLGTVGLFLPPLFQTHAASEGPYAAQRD
# Chain of Neuronal acetylcholine receptor; alpha3/beta4 (P32297 whole entry): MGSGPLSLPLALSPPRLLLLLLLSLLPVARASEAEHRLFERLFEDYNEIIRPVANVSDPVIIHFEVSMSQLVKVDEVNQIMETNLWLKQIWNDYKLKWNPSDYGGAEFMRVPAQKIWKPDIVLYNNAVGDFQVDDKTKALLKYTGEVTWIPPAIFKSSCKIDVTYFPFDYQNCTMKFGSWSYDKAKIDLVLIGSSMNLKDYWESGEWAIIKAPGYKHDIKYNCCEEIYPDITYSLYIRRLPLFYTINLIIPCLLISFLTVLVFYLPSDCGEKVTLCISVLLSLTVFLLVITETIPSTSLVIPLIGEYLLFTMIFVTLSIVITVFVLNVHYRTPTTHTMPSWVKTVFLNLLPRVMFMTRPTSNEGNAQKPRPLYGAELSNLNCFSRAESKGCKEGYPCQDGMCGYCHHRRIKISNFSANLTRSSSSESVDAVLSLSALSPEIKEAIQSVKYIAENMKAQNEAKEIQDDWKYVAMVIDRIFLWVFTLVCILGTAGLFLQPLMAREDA
# [5] = Metabolic stability in human liver microsomes assessed as compound metabolism incubated for 30 mins in presence of NADPH by LC-MS/MS analysis; format: ADME, Microsome; conditions: read-out: Drug metabolism
# [6] = Metabolic stability in rat liver microsomes assessed as compound metabolism incubated for 30 mins in presence of NADPH by LC-MS/MS analysis; format: ADME, Microsome; conditions: read-out: Drug metabolism
# Cytochrome P450 2D6 = Cytochrome P450 2D6 (Homo sapiens, UniProt P10635); assay: Inhibition of CYP2D6 in human liver microsomes using dextromethorphan as substrate incubated for 12 min in presence of NADPH by LC-MS/MS analysis; format: ADME
# Chain of Cytochrome P450 2D6 (P10635 whole entry): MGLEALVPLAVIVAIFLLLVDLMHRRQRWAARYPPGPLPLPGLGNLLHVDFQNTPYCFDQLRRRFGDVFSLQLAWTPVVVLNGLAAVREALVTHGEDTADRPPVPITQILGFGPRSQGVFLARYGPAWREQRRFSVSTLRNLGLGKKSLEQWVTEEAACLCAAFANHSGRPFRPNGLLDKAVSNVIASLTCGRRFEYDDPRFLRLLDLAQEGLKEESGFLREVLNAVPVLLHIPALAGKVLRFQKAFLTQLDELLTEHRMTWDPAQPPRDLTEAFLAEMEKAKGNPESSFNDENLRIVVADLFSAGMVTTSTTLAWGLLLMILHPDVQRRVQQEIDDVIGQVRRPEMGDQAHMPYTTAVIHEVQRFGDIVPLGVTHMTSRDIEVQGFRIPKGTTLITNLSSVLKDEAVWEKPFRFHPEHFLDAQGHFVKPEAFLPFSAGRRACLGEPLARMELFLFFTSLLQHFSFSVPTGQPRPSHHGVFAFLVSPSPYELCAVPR
# Cytochrome P450 3A4 = Cytochrome P450 3A4 (Homo sapiens, UniProt P08684); assay: Inhibition of CYP3A4 in human liver microsomes using midazolam as substrate incubated for 2 min in presence of NADPH by LC-MS/MS analysis; format: ADME
# Chain of Cytochrome P450 3A4 (P08684 whole entry): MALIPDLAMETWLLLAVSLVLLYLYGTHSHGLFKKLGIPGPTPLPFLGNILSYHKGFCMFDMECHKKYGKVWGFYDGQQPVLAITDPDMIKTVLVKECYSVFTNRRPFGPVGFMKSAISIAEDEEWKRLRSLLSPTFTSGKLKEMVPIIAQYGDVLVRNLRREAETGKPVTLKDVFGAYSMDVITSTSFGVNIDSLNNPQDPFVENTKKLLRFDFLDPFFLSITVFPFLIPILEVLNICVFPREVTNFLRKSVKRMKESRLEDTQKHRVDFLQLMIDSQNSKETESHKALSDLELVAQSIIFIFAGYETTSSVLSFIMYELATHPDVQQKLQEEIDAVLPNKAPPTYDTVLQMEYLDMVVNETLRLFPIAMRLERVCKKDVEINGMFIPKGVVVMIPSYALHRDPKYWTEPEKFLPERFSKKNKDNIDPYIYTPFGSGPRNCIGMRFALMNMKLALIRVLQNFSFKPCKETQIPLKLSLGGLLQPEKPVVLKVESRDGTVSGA
# [7] = Oral bioavailability in Wistar rat at 10 ml/kg measured upto 24 hrs by LC-MS/MS analysis; format: ADME, organism-based; conditions: in vivo
# [8] = Cmax in Wistar rat at 10 ml/kg, po or 2 ml/kg, iv measured upto 24 hrs by LC-MS/MS analysis; format: ADME, organism-based; conditions: in vivo
# [9] = AUC in Wistar rat at 10 ml/kg, po or 2 ml/kg, iv measured upto 24 hrs by LC-MS/MS analysis; format: ADME, organism-based; conditions: in vivo
# [10] = Half life in Wistar rat at 10 ml/kg, po or 2 ml/kg, iv measured upto 24 hrs by LC-MS/MS analysis; format: ADME, organism-based; conditions: in vivo
# [11] = Ratio of drug level in brain to plasma in Wistar rat at 10 ml/kg, po or 2 ml/kg, iv measured upto 24 hrs by LC-MS/MS analysis; format: ADME, organism-based; conditions: brain and plasma, read-out: BPR
smiles,measurement,setting,value
CN1[C@H](COc2cccnc2)C[C@H]2C[C@H]21,pKi,[1],8.26
C=Cc1nnc(-c2cncc(OC[C@@H]3C[C@H]4C[C@H]4N3)c2)o1,pKi,[1],5.58
Clc1cncc(OC[C@@H]2C[C@@H]3C[C@@H]3N2)c1,pKi,[1],6.49
C[C@@]12C[C@@H]1CC(COc1cccnc1Cl)N2 (stereo partly drawn),pKi,[1],< 5.00
Cc1ncccc1OC[C@@H]1C[C@H]2C[C@H]2N1.Cl,pKi,[1],< 5.00
same,Time,Rattus norvegicus [2],204.8 s
same,Time,Rattus norvegicus [3],198.8 s
CN1[C@H](COc2ccc(Cl)nc2)C[C@H]2C[C@H]21,pKi,[1],8.47
Cc1ccc(OC[C@@H]2C[C@H]3C[C@H]3N2C)cn1,pKi,[1],7.70
CN1[C@H](COc2cncc(Br)c2)C[C@H]2C[C@H]21,pKi,[1],8.38
Clc1ncccc1OC[C@@H]1CC[C@H]2C[C@H]2N1,pKi,[1],< 5.00
Brc1cncc(OC[C@@H]2C[C@H]3C[C@H]3N2)c1,pKi,[1],8.19
CN1[C@H](COc2cncc(Cl)c2)C[C@H]2C[C@H]21,pKi,[1],9.43
c1ccc(OC[C@@H]2C[C@H]3C[C@H]3N2)nc1,pKi,[1],< 5.00
Cc1ncccc1OC[C@@H]1C[C@H]2C[C@H]2N1C,pKi,[1],6.64
Clc1ccc(OC[C@@H]2C[C@H]3C[C@H]3N2)nn1,pKi,[1],5.32
Clc1ccc(OC[C@H]2C[C@H]3C[C@H]3N2)cn1,pKi,[1],6.48
same,pKi,[4],6.28
same,metabolised at 0.5 h,[5],18.3%
same,metabolised at 0.5 h,[6],69.6%
same,pIC50,Cytochrome P450 2D6,4.49
same,pIC50,Cytochrome P450 3A4,< 4.35
CN1[C@H](COc2cccnc2F)C[C@H]2C[C@H]21,pKi,[1],7.50
c1cncc(OC[C@H]2NC[C@@H]3C[C@@H]32)c1,pKi,[1],9.85
same,pKi,[4],7.58
same,metabolised at 0.5 h,[5],6.7%
same,metabolised at 0.5 h,[6],6.2%
same,pIC50,Cytochrome P450 2D6,< 4.35
same,pIC50,Cytochrome P450 3A4,4.68
Cl.Fc1ccc(OC[C@@H]2C[C@H]3C[C@H]3N2)cn1,pKi,[1],8.41
same,pKi,[4],< 5.00
same,metabolised at 0.5 h,[5],10.7%
same,metabolised at 0.5 h,[6],5.1%
same,bioavailability,[7],96%
same,Cmax,[8],3.76 µg/mL
same,AUC at 24 h,[9],15.6 µg·h/mL
same,half-life,[10],4.02 h
same,Kp at 24 h,[11],2.38
same,pIC50,Cytochrome P450 2D6,< 4.35
same,pIC50,Cytochrome P450 3A4,< 4.35
same,Time,Rattus norvegicus [2],259.6 s
same,Time,Rattus norvegicus [3],263.5 s
Clc1cc(OC[C@@H]2C[C@H]3C[C@H]3N2)c(Cl)nc1Cl,pKi,[1],6.58
c1cncc(N2CCC3(CCCN3)C2)c1 (stereo not drawn) [TC-2216],pKi,[1],7.73
same,pKi,[4],< 5.00
same,Time,Rattus norvegicus [2],249.1 s
same,Time,Rattus norvegicus [3],183.9 s
Cl.c1cncc(OC[C@@H]2C[C@H]3C[C@H]3N2)c1,pKi,[1],8.10
same,pKi,[4],< 5.00
same,metabolised at 0.5 h,[5],12.1%
same,metabolised at 0.5 h,[6],17.9%
same,bioavailability,[7],92%
same,Cmax,[8],7.61 µg/mL
same,AUC at 24 h,[9],10.9 µg·h/mL
same,half-life,[10],4.19 h
same,Kp at 24 h,[11],3.8
same,pIC50,Cytochrome P450 2D6,4.58
same,pIC50,Cytochrome P450 3A4,< 4.35
same,Time,Rattus norvegicus [2],231 s
same,Time,Rattus norvegicus [3],210.4 s
FC(F)(F)c1ccc(OC[C@@H]2C[C@H]3C[C@H]3N2)cn1,pKi,[1],6.11
Cc1ccc(OC[C@@H]2C[C@@H]3C[C@@H]3N2)cn1,pKi,[1],8.86
C[C@@]12C[C@@H]1CC(COc1cccnc1)N2 (stereo partly drawn),pKi,[1],8.44
Brc1cncc(OC[C@@H]2C[C@@H]3C[C@@H]3N2)c1,pKi,[1],8.54
COc1ccc(OC[C@@H]2C[C@@H]3C[C@@H]3N2)cn1,pKi,[1],8.33
C[C@@]12C[C@@H]1CC(COc1cncc(Cl)c1)N2 (stereo partly drawn),pKi,[1],6.24
Clc1cncc(OC[C@@H]2CC[C@H]3C[C@H]3N2)c1,pKi,[1],7.50
Fc1ncccc1OC[C@@H]1C[C@H]2C[C@H]2N1,pKi,[1],7.76
Cl.Clc1ccc(OC[C@@H]2C[C@@H]3C[C@@H]3N2)cn1,pKi,[1],8.19
same,pKi,[4],5.99
same,metabolised at 0.5 h,[5],13.6%
same,metabolised at 0.5 h,[6],36%
same,bioavailability,[7],66%
same,Cmax,[8],0.638 µg/mL
same,AUC at 24 h,[9],1.62 µg·h/mL
same,half-life,[10],2.73 h
same,Kp at 24 h,[11],2.14
same,pIC50,Cytochrome P450 2D6,< 4.35
same,pIC50,Cytochrome P450 3A4,< 4.35
Clc1cncc(OC[C@H]2NC[C@@H]3C[C@@H]32)c1,pKi,[1],9.70
same,pKi,[4],8.09
same,metabolised at 0.5 h,[5],6.04%
same,metabolised at 0.5 h,[6],12.1%
same,pIC50,Cytochrome P450 2D6,< 4.35
same,pIC50,Cytochrome P450 3A4,< 4.35
Clc1cncc(OC[C@]23C[C@H]2CCN3)c1,pKi,[1],6.08
Brc1ccc(OC[C@@H]2C[C@H]3C[C@H]3N2)cn1,pKi,[1],7.33
Cc1ccc(OC[C@@H]2C[C@H]3C[C@H]3N2)cn1,pKi,[1],7.58
Cl.c1cncc(OC[C@@H]2C[C@@H]3C[C@@H]3N2)c1,pKi,[1],5.87
same,pKi,[4],6.25
same,metabolised at 0.5 h,[5],2.6%
same,metabolised at 0.5 h,[6],3.9%
same,bioavailability,[7],87%
same,Cmax,[8],1.5 µg/mL
same,AUC at 24 h,[9],2.71 µg·h/mL
same,half-life,[10],1.08 h
same,Kp at 24 h,[11],3.07
same,pIC50,Cytochrome P450 2D6,4.52
same,pIC50,Cytochrome P450 3A4,4.50
Cc1ncccc1OC[C@@H]1CCCN1 [POZANICLINE],pKi,[4],< 5.00
Clc1cncc(OCC[C@@H]2C[C@H]3C[C@H]3N2)c1,pKi,[1],6.40
Clc1ncccc1OC[C@@H]1C[C@@H]2C[C@@H]2N1,pKi,[1],9.00
Clc1cc(OC[C@@H]2C[C@H]3C[C@H]3N2)cnc1Cl,pKi,[1],6.83
CN1[C@H](COc2cccnc2Cl)C[C@H]2C[C@H]21,pKi,[1],7.55
c1cnc(OC[C@@H]2C[C@H]3C[C@H]3N2)cn1,pKi,[1],< 5.00
Cl.Clc1ccc(OC[C@H]2C[C@@H]3C[C@@H]3N2)cn1,pKi,[1],7.41
same,pKi,[4],5.22
same,metabolised at 0.5 h,[5],42.2%
same,metabolised at 0.5 h,[6],26.2%
same,bioavailability,[7],35%
same,Cmax,[8],1.19 µg/mL
same,AUC at 24 h,[9],1.77 µg·h/mL
same,half-life,[10],1.6 h
same,Kp at 24 h,[11],3.83
same,pIC50,Cytochrome P450 2D6,4.77
same,pIC50,Cytochrome P450 3A4,< 4.35
same,Time,Rattus norvegicus [2],256.8 s
same,Time,Rattus norvegicus [3],279 s
c1ccc2ncc(OC[C@@H]3C[C@H]4C[C@H]4N3)cc2c1,pKi,[1],6.22
CC(=O)N1[C@H](COc2ccc(Cl)nc2)C[C@H]2C[C@H]21,pKi,[1],< 5.00
Cc1nnc(-c2cncc(OC[C@@H]3C[C@H]4C[C@H]4N3)c2)o1,pKi,[1],6.39
Clc1ccc(OC[C@]23C[C@H]2CCN3)cn1,pKi,[1],6.47
COc1ccc(OC[C@@H]2C[C@H]3C[C@H]3N2)cn1,pKi,[1],< 5.00
Clc1ccc(OCC[C@@H]2C[C@H]3C[C@H]3N2)cn1,pKi,[1],6.49
c1nnc(-c2cncc(OC[C@@H]3C[C@H]4C[C@H]4N3)c2)o1,pKi,[1],6.88
Fc1ccc(OC[C@@H]2C[C@@H]3C[C@@H]3N2)cn1,pKi,[1],8.92
Clc1nccnc1OC[C@@H]1C[C@H]2C[C@H]2N1,pKi,[1],5.29
Cl.c1cncc(OC[C@@H]2CC[C@H]3C[C@H]3N2)c1,pKi,[1],7.94
same,pKi,[4],7.16
same,metabolised at 0.5 h,[5],53.1%
same,metabolised at 0.5 h,[6],17%
same,Cmax,[8],0.665 µg/mL
same,half-life,[10],0.01 h
same,Kp at 24 h,[11],0.32
same,pIC50,Cytochrome P450 2D6,< 4.35
same,pIC50,Cytochrome P450 3A4,< 4.35
c1cncc(OC[C@]23C[C@H]2CCN3)c1,pKi,[1],6.62
Cl.Clc1cncc(OC[C@@H]2C[C@H]3C[C@H]3N2)c1,pKi,[1],9.72
same,pKi,[4],< 5.00
same,metabolised at 0.5 h,[5],40.7%
same,metabolised at 0.5 h,[6],40.4%
same,bioavailability,[7],50%
same,Cmax,[8],0.949 µg/mL
same,AUC at 24 h,[9],1.19 µg·h/mL
same,half-life,[10],1.07 h
same,Kp at 24 h,[11],3.79
same,pIC50,Cytochrome P450 2D6,< 4.35
same,pIC50,Cytochrome P450 3A4,< 4.35
same,Time,Rattus norvegicus [2],249.9 s
same,Time,Rattus norvegicus [3],241.7 s
c1cc(OC[C@@H]2C[C@H]3C[C@H]3N2)ccn1,pKi,[1],< 5.00
Cl.Clc1ccc(OC[C@@H]2CC[C@H]3C[C@H]3N2)cn1,pKi,[1],7.69
same,pKi,[4],< 5.00
same,metabolised at 0.5 h,[5],98.9%
same,metabolised at 0.5 h,[6],72.8%
same,bioavailability,[7],48%
same,Cmax,[8],3.34 µg/mL
same,AUC at 24 h,[9],4.48 µg·h/mL
same,half-life,[10],0.68 h
same,Kp at 24 h,[11],0.16
same,pIC50,Cytochrome P450 2D6,4.10
same,pIC50,Cytochrome P450 3A4,< 4.35
same,Time,Rattus norvegicus [2],238.6 s
same,Time,Rattus norvegicus [3],264.9 s
OCCCCC#Cc1cncc(OC[C@@H]2C[C@H]3C[C@H]3N2)c1,pKi,[1],8.57
CN1[C@H](COc2ccc(F)nc2)C[C@H]2C[C@H]21,pKi,[1],8.96
C[C@@]12C[C@@H]1CC(COc1ccc(Cl)nc1)N2 (stereo partly drawn),pKi,[1],5.16
Clc1ccc(OC[C@H]2NC[C@@H]3C[C@@H]32)cn1,pKi,[1],9.70
